Measurements reported in BindingDB's records for doi:10.1016/j.bmc.2007.10.027 (Research Triangle Institute, 2008).

Target: Neuronal acetylcholine receptor subunit alpha-4 (Rattus norvegicus, UniProt P09483)
Sequence (P09483 whole entry): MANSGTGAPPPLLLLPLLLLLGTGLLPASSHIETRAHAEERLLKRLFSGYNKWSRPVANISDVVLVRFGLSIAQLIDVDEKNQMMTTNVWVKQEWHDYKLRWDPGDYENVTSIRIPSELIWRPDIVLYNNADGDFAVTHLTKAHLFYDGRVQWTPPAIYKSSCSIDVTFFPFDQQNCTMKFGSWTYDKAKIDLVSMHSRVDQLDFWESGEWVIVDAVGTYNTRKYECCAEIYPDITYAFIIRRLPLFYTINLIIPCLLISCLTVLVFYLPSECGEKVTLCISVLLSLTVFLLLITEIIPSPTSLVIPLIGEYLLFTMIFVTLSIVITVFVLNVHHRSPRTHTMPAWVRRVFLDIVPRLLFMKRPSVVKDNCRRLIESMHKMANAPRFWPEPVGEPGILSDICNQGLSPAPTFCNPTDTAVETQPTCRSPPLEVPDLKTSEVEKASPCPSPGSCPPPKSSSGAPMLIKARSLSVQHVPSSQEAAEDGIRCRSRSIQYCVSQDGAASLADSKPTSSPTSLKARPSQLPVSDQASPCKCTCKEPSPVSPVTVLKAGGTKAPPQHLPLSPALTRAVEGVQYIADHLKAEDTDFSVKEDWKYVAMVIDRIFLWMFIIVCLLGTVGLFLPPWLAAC

| SMILES | Ki [nM] |
| --- | --- |
| Nc1cccc(-c2cc(C3CC4CCC3N4)cnc2F)c1 (racemic) [CAS_45263775] | 0.1 |
| COc1cccc(-c2cc(C3CC4CCC3N4)cnc2F)c1 (racemic) [CAS_45266054] | 0.12 |
| c1cncc(C2CC3CCC2N3)c1 (centres undefined) [2-(pyridin-3-yl)-7-aza-bicyclo[2.2.1]heptane] | 0.02 |
| Fc1ncc(C2CC3CCC2N3)cc1-c1ccccc1 (centres undefined) [NSC_45263762] | 0.24 |
